Assay [1] has as its target T1, IRE1a (Homo sapiens, UniProt O75460). The assay is described as follows: In vitro FRET assay (IRE1a cleavage of XBP1 RNA probe). Conditions: 2 nM IRE1a. In kind it is biochemical. The arrangement: purchased SignalChem. As for the experimental part: In vitro FRET assay was performed to evaluate the ability of select compounds to inhibit IRE1, the results of which are summarized in Table 3. To perform the in vitro FRET assay, 1× complete assay buffer (CAB; […], 50 mM sodium citrate pH 7.15, 1 mM magnesium acetate, 0.02% tween 20) was used to dilute SignalChem IRE1a protein to a final concentration of 2 nM. Selected compounds were serially diluted with DMSO in a non-binding black 384-well plate for a total of 15 ul in each well, 2 ul of the serially diluted compound or DMSO control were then added to new wells containing 98 ul of 1×CAB, for a total volume of 100 ul, 10 ul of which were then transferred to wells of a new plate, 5 ul of the diluted IRE1a was then added to each well, 5 ul of a […] XBP1 RNA probe was then added to each well. Fluorescence was then read over 30 minutes in kinetic mode (485/515 nm).
Two RNA probes were used, XBP1 wildtype (SEQ ID NO: 2) which is able to be spliced by active IRE1a or XBP1 mutant (SEQ ID NO: 3) which is unable to be spliced. Each probe contained a 5′ 6-FAM modification and a 3′ IOWA Black FQ modification. […]

In assay [2] the target is T1, IRE1a. The assay is described as follows: IRE1a Endoribonuclease Nanoluciferase Assay in 293T cells. The arrangement: endogenous in cells; host or cells: 293T cells. In kind it is cell-based. Conditions: XBP1 luciferase reporter in 293T cells, ER stressor. How it is done:
Compounds disclosed herein were assessed for disruption of IRE1 signaling using a IRE1a Endoribonuclease Nanoluciferase Assay. Briefly, 2.5×10^6 293T cells were seeded in a 10 cm^2 tissue culture plate. About 24 hours later, the cells were transfected with Effectene. In a 15 mL tube, the following was added: 2 ug XBP1 luciferase reporter plasmid (PGK-Luc2-P2A-XBP1u-Nanoluciferase-PEST); 300 ul EC buffer; and 16 ul Enhancer, followed by incubation at room temp for 5 minutes. Next, 60 ul Effectene (Qiagen 301427) was added, followed by incubation at room temperature for 10 minutes, 2.6 mL cDMEM media was added. Old media was aspirated from the cells, followed by addition of 7 mL fresh media. Full transfection mixture was added dropwise to cells. Cells were incubated for 6 hours, followed by trypsinization, centrifugation and resuspension in 11 mL fresh cDMEM media, 100 uL of cells were plated per a well in a 96 well plate. A day later, ER stressors of choice +/−inhibitors were added. To harvest, media was aspirated from cells completely, then 50 uL 1× passive lysis buffer (Promega: E1941) was added per well and put on shaker (300 rpm) for 30 minutes at room temperature. Cells were centrifuged, and 15 uL sample per well was added to a new, opaque white 384 well plate (Corning 3570), 15 uL OneGlo (nanoluciferase kit, Promega N1630) was added. Plates were spun down, placed on shaker (300 rpm) for 10 minutes. Plates were read on luminometer, 1000 ms integration time per well, 15 uL Stop and Glo (nanoluciferase kit) was added. Plates were spun down, placed on shaker (300 rpm) for 10 minutes. Plates were read on luminometer, 1000 ms second integration time per well. Recordings are provided below in Table 4.

Structures can show the parent of a compound that is named as a salt.

T1 sequence (O75460 19-977): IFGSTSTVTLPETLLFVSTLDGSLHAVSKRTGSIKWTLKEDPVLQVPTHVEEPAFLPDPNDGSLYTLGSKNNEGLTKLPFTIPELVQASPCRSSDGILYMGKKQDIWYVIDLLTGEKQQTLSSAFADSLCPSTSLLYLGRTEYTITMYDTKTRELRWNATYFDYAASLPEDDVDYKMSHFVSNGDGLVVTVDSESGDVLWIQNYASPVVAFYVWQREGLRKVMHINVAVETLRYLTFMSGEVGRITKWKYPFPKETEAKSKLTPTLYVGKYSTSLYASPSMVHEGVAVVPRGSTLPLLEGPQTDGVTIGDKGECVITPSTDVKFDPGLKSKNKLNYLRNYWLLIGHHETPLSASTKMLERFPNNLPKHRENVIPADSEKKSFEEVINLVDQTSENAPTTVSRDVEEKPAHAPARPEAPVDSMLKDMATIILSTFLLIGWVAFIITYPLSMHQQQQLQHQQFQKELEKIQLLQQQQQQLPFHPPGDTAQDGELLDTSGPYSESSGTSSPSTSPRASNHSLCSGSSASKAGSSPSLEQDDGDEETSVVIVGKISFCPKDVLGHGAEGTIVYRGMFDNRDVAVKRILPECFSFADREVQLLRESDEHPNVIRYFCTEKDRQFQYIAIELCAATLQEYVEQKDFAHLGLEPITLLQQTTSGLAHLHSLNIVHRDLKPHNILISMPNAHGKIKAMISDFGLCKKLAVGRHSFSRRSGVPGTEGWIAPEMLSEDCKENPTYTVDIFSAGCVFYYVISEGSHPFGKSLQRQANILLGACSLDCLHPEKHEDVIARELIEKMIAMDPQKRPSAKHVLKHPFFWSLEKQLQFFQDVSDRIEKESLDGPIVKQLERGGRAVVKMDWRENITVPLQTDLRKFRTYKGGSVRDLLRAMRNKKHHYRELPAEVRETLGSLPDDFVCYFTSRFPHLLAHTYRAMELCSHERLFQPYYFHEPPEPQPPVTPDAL

By IC50 is commonly meant the concentration at which inhibition is half-maximal. By EC50 is commonly meant the concentration at which the effect is half-maximal. `COc1nc(NS(=O)(=O)c2ccccc2Cl)c(F)cc1-c1ccc2nc(N[C@H]3CC[C@H](N(C)C)CC3)ncc2c1` [149; Formic Acid Salt] showed an IC50 on IRE1a [1] of at most 5 nM. Also, the EC50 at IRE1a [2] was in the range of 5 to 50 nM.
The compound `CCc1cc(-c2cnc(NS(=O)(=O)c3ccccc3Cl)cc2OC)cc2cnc(N[C@H]3CC[C@H](N)CC3)nc12` [92; Formic Acid Salt] showed an EC50 on IRE1a [2] of 100 to 10000 nM.
As for `Cc1nc(NS(=O)(=O)c2ccccc2Cl)ccc1-c1cc(C(C)(F)F)c2nc(N[C@H]3CC[C@H](N(C)C)CC3)ncc2c1` [131; Formic Acid Salt], the IC50 on IRE1a [1] is at most 5 nM. For the same compound, the concentration giving a half-maximal response (EC50) at IRE1a [2] was at most 5 nM.
On IRE1a [1], `CCc1c(F)c(-c2cc(F)c(NS(=O)(=O)c3ccccc3Cl)nc2OC)cc2cnc(N[C@H]3CC[C@H](N(C)C)CC3)nc12` [163; Formic Acid Salt] came in with an IC50 of at most 5 nM. The same compound yielded an EC50 at IRE1a [2] of at most 5 nM.
Regarding `COc1nc(NS(=O)(=O)c2ccccc2Cl)c(F)cc1-c1cc(C)c2nc(N[C@H]3CC[C@@H](N(C)C)CC3)ncc2c1` [147; Formic Acid Salt], the IC50 on IRE1a [1] lay in the range of 5 to 50 nM.
Take `CCc1c(F)c(-c2cc(F)c(NS(=O)(=O)c3ccccc3Cl)nc2C)cc2cnc(N[C@H]3CC[C@H](N(C)C)CC3)nc12` [162; Formic Acid Salt]: the concentration for half-maximal inhibition (IC50) against IRE1a [1] was at most 5 nM. The compound further gave an EC50 at IRE1a [2] of at most 5 nM.
On IRE1a [2], `N[C@H]1CC[C@H](Nc2ncc3cc(-c4nnc(NS(=O)(=O)c5ccccc5Cl)s4)ccc3n2)CC1` [89; Formic Acid Salt] showed a half-maximal effective concentration (EC50) of 100 to 10000 nM.
On IRE1a [1], `CCc1cc(-c2cnc(NS(=O)(=O)c3ccccc3Cl)c(F)c2)cc2cnc(N[C@H]3CC[C@H](N(C)C)CC3)nc12` [95; Formic Acid Salt] came in with a half-inhibitory concentration (IC50) of at most 5 nM. The same compound displayed an EC50 at IRE1a [2] of at most 5 nM.
Take `CCc1cc(-c2ccc(NS(=O)(=O)c3cccc(F)c3Cl)nc2C)cc2cnc(N[C@H]3CC[C@H](N(C)C)CC3)nc12` [158; Formic Acid Salt]: the concentration for half-maximal inhibition (IC50) at IRE1a [1] is at most 5 nM. At IRE1a [2], this compound registered an EC50 of at most 5 nM.
`CCc1cc(-c2cc(F)c(NS(=O)(=O)c3ccccc3Cl)nc2OC)cc2cnc(N[C@H]3CC[C@H](N(C)C)CC3)nc12` [128; Formic Acid Salt] returned a half-inhibitory concentration (IC50) on IRE1a [1] of at most 5 nM. Further, the half-maximal effective concentration (EC50) on IRE1a [2] was at most 5 nM.
As for `CCc1cc(-c2ccc(N(C)S(=O)(=O)c3ccccc3Cl)cc2C)cc2cnc(N[C@H]3CC[C@H](N)CC3)nc12` [31; Formic Acid Salt], the IC50 at IRE1a [1] is 100 to 10000 nM.
The same measure, in the same setting: the result for `CCc1cc(-c2ccc(NS(=O)(=O)c3ccccc3Cl)nc2OC)cc2cnc(N[C@H]3CC[C@@](C)(N(C)C)CC3)nc12` [143; Formic Acid Salt] reads 5 to 50 nM.
`COc1nc(NS(=O)(=O)c2ccccc2Cl)ccc1-c1cc(C(F)(F)F)c2nc(N[C@H]3CC[C@H](N(C)C)CC3)ncc2c1` [135; Formic Acid Salt] yielded an IC50 on IRE1a [1] of at most 5 nM. Also, the concentration giving a half-maximal response (EC50) on IRE1a [2] was at most 5 nM.
In turn, `CCc1cc(-c2ccc(NS(=O)(=O)c3ccccc3Cl)nc2C)cc2cnc(N[C@H]3CC[C@H](N(C)CCOC)CC3)nc12` [132; Formic Acid Salt] displayed an IC50 against IRE1a [1] of at most 5 nM. In addition, the half-maximal effective concentration (EC50) on IRE1a [2] is at most 5 nM.
On IRE1a [1], `CCc1cc(-c2ccc(NS(=O)(=O)c3ccccc3Cl)nc2C)cc2cnc(N[C@H]3CC[C@H](N(C)CC(F)(F)F)CC3)nc12` [126; Formic Acid Salt] registered a concentration for half-maximal inhibition (IC50) of 50 to 100 nM.
Compound `CCc1cc(-c2cc(F)c(NS(=O)(=O)c3ccccc3Cl)nc2OC)cc2cnc(N[C@H]3CC[C@H](NC)CC3)nc12` [127; Formic Acid Salt] displayed an IC50 against IRE1a [1] of at most 5 nM. At IRE1a [2], this compound had a concentration for a half-maximal effect (EC50) of at most 5 nM.
With `COc1nc(NS(=O)(=O)c2ccccc2Cl)ccc1-c1cc(C)c2nc(N[C@H]3CC[C@H](N(C)C)CC3)ncc2c1` [133; Formic Acid Salt], the IC50 against IRE1a [1] is at most 5 nM. For the same compound, the 50% effective concentration (EC50) at IRE1a [2] is at most 5 nM.
Compound `CCc1cc(-c2ccc(NS(=O)(=O)c3cccc(C)c3Cl)nc2C)cc2cnc(N[C@H]3CC[C@H](N(C)C)CC3)nc12` [160; Formic Acid Salt] registered a 50% inhibitory concentration (IC50) at IRE1a [1] of at most 5 nM. In addition, the 50% effective concentration (EC50) at IRE1a [2] was at most 5 nM.
Take `CN[C@H]1CC[C@H](Nc2ncc3cc(-c4cc(F)c(NS(=O)(=O)c5ccccc5Cl)nc4OC)ccc3n2)CC1` [150; Formic Acid Salt]: on IRE1a [1], the IC50 is at most 5 nM. Further, the EC50 at IRE1a [2] fell in the range of 5 to 50 nM.
The like results for `CCc1cc(-c2nnc(NS(=O)(=O)c3ccccc3Cl)cc2OC)cc2cnc(N[C@H]3CC[C@H](N(C)C)CC3)nc12` [159; Formic Acid Salt] were, in that order, at most 5 nM and 5 to 50 nM.
`COc1nc(NS(=O)(=O)c2ccccc2Cl)ccc1-c1cc(C)c2nc(N[C@H]3CC[C@@H](N(C)C)CC3)ncc2c1` [139; Formic Acid Salt] displayed an IC50 at IRE1a [1] of 5 to 50 nM.
Consider `N[C@H]1CCC[C@@H](Nc2ncc3cc(-c4ccc(NS(=O)(=O)c5ccccc5Cl)c(F)c4)ccc3n2)C1` [75; Formic Acid Salt], for which the half-inhibitory concentration (IC50) against IRE1a [1] was at most 5 nM. The EC50 at IRE1a [2] was 100 to 10000 nM.
With `CCc1nc(NS(=O)(=O)c2ccccc2Cl)ccc1-c1cc(CC)c2nc(N[C@H]3CC[C@H](N(C)C)CC3)ncc2c1` [117; Formic Acid Salt], at IRE1a [1], the 50% inhibitory concentration (IC50) was at most 5 nM. Also, on IRE1a [2], the EC50 is at most 5 nM.
`CCc1cc(-c2cc(F)c(NS(=O)(=O)c3ccccc3Cl)nc2OC)cc2cnc(N[C@H]3CC[C@@H](N(C)C)CC3)nc12` [142; Formic Acid Salt]: at IRE1a [1], the half-inhibitory concentration (IC50) fell in the range of 5 to 50 nM.
As to `N[C@H]1CC[C@@H](Nc2ncc3cc(-c4ccc(NS(=O)(=O)c5ccccc5Cl)c(F)c4)ccc3n2)C1` [80; Formic Acid Salt], the EC50 at IRE1a [2] lay within 100 to 10000 nM.
On IRE1a [1], `CCc1cc(-c2ccc(NS(=O)(=O)c3ccccc3Cl)nc2C)cc2cnc(N[C@H]3CC[C@H](N(C)C)C[C@@H]3F)nc12` [151; Formic Acid Salt] registered an IC50 of at most 5 nM. The compound also had an EC50 at IRE1a [2] of at most 5 nM.
Compound `CCc1cc(-c2ccc(NS(=O)(=O)c3ccccc3Cl)nc2C)cc2cnc(N[C@H]3CC[C@H](N(C)CC4CCC4)CC3)nc12` [130; Formic Acid Salt] yielded an IC50 on IRE1a [1] of at most 5 nM. The compound also yielded a concentration giving a half-maximal response (EC50) on IRE1a [2] of at most 5 nM.
On to `COc1nc(NS(=O)(=O)c2ccccc2Cl)c(F)cc1-c1cc(F)c2nc(N[C@H]3CC[C@H](N(C)C)CC3)ncc2c1` [155; Formic Acid Salt], for which the IC50 at IRE1a [1] is at most 5 nM. The compound further gave a half-maximal effective concentration (EC50) on IRE1a [2] of 50 to 100 nM.
Regarding `COc1nc(NS(=O)(=O)c2ccccc2Cl)ccc1-c1cc(F)c2nc(N[C@H]3CC[C@H](N(C)C)CC3)ncc2c1` [148; Formic Acid Salt], the IC50 against IRE1a [1] was at most 5 nM. At IRE1a [2], this compound yielded an EC50 of at most 5 nM.
`CCc1cc(-c2ccc(NS(=O)(=O)c3ccccc3Cl)nc2OC)cc2cnc(N[C@H]3CC[C@@H](N(C)C)CC3)nc12` [141; Formic Acid Salt]: on IRE1a [1], the IC50 was at most 5 nM. The EC50 on IRE1a [2] fell in the range of 100 to 10000 nM.
With `Cc1nc(NS(=O)(=O)c2ccccc2Cl)c(F)cc1-c1cc(F)c2nc(N[C@H]3CC[C@H](N(C)C)CC3)ncc2c1` [156; Formic Acid Salt], the IC50 at IRE1a [1] was in the range of 100 to 10000 nM.
Regarding `CCc1cc(-c2ccc(NS(=O)(=O)c3ccccc3Cl)c(F)c2)cc2cnc(N[C@H]3CC[C@H](N4CCCC4)CC3)nc12.O=CO` [88; Formic Acid Salt], the “Mean EC50” value on IRE1a [2] is “,”.
For `CCc1cc(-c2ccc(NS(=O)(=O)c3ccccc3Cl)c(F)c2)cc2cnc(N[C@@H]3CCC[C@H](N)C3)nc12` [72; Formic Acid Salt], the half-maximal effective concentration (EC50) on IRE1a [2] was in the range of 100 to 10000 nM.
On IRE1a [2], `CCc1cc(-c2cc(NS(=O)(=O)c3ccccc3Cl)n[nH]2)cc2cnc(N[C@H]3CC[C@H](N)CC3)nc12` [29; Formic Acid Salt] displayed an EC50 of 100 to 10000 nM.

Values taken from patent US20220265656A1, “COMBINATION THERAPIES WITH IRE1 SMALL MOLECULE INHIBITORS” (Cornell University, priority 2019, published 2022).
